This test concerns the target T1, GST-tagged KRAS G12D (2-169) (Homo sapiens, UniProt P01116, G12D).
T1 construct: GST-tagged KRAS^G12D (2-169, Reaction Biology, MSC-11-539); purchased Reaction Biology MSC-11-539 (KRAS G12D); MSC-11-502 (SOS1cat)
Put plainly: Nucleotide exchange assay (NEA), HTRF of SOS-mediated GTP-DY-647P1 binding. It is filed as biochemical. The conditions noted are these: 5 nM GST-KRAS G12D, 20 nM SOScat, 150 nM GTP; compound 1 h at RT. An excerpt: This activity is tightly regulated by GTPase activating proteins (GAPs) and guanine nucleotide exchange factors (GEFs). GEFs, such as SOS1/2, activate Ras proteins by exchanging GDP for GTP, thus returning Ras to its active conformation (Simanshu, Nissley, & McCormick, 2017). […] Homogenous time resolved fluorescence (HTRF) was used to detect SOS-mediated binding of a fluorescent GTP analog, GTP-DY-647P1 (Jena Biosciences NU-820-647P1) to GST-tagged KRAS^G12D (2-169, Reaction Biology, MSC-11-539).
GST-tagged KRAS^G12D (2-169) and anti-GST MAb Tb Cryptate Gold (CisBio 61GSTTLB) were diluted into assay buffer (20 mM HEPES, pH 7.3, 150 mM NaCl, 5 mM MgCl2, 0.05% BSA 0.0025% NP40, 1 mM DTT) to prepare a 2.5× donor solution. 5× compound was added to the protein mixture and incubated for 1 h at RT. 2.5× acceptor solution containing SOS1cat (564-1049, Reaction Biology MSC-11-502) and GTP-DY-647P1 were then added to the donor KRAS mixture such that the final concentration of the reaction contained 5 nM GST-tagged KRAS^G12D (2-169), 20 nM SOScat, and 150 nM GTP. The reaction was monitored using at RT with the Envision multimode plate reader (Ex/Em 337/665, […]) up to 90 minutes at 5 minute intervals. Data was blanked to reactions without SOS1 and % inhibition was calculated such that DMSO only=0% and blank=100%. Curve fitting was done using a 4 parameter fit. NEA KRAS G12D ID50 (uM) values of selected compounds are depicted in Table 2 with compounds having a value<0.01 uM as ++++; >0.01 uM to 0.1 uM as +++; >0.1 uM to 1 uM as ++; >1 uM to 20 uM as +; and >20 uM as NA.
T1 sequence (P01116 2-169 isoform P01116-2 G12D): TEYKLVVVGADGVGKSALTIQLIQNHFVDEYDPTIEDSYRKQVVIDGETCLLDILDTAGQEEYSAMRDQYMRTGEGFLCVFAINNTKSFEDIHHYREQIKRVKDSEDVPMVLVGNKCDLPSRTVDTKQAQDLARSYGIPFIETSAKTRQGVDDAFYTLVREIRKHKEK
Consider `O=C1CCCN(c2nc(OCC34CCCN3CC(F)C4)nc3c2COC2(CCc4c(Cl)cccc42)C3)CC1` (mixture of isomers) [Compound 21, 1-[4′-chloro-2-[[rac-(2R,8S)-2-fluoro-1,2,3,5,6,7-hexahydropyrrolizin-8-yl]methoxy]spiro[5,8-dihydropyrano[4,3-d]pyrimidine-7,1′-indane]-4-yl]azepan-4-one], for which the 50% inhibitory concentration (IC50) lay within 1000 to 20000 nM.
The result for `N#Cc1c(N)sc2c1C1(CCC2)Cc2nc(OC[C@@]34CCCN3C[C@H](F)C4)nc(N3CCCCCC3)c2CO1` (mixture of isomers) [Compound 26, 2′-amino-4-(azepan-1-yl)-2-[[rac-(2R,8S)-2-fluoro-1,2,3,5,6,7-hexahydropyrrolizin-8-yl]methoxy]spiro[5,8-dihydropyrano[4,3-d]pyrimidine-7,4′-6,7-dihydro-5H-benzothiophene]-3′-carbonitrile] reads 1000 to 20000 nM.
The result for `C[C@@]1(O)CCCN(c2nc(OC[C@@]34CCCN3C[C@H](F)C4)nc3c2COC2(CCc4c(Cl)cccc42)C3)C1` (single isomer, unassigned) [Compound 23B, (3R)-1-[(7*)-4′-chloro-2-[[(2R,8S)-2-fluoro-1,2,3,5,6,7-hexahydropyrrolizin-8-yl]methoxy]spiro[5,8-dihydropyrano[4,3-d]pyrimidine-7,1′-indane]-4-yl]-3-methyl-piperidin-3-ol] reads 1000 to 20000 nM; that for `O=C1NC(=O)[C@]2(CCCN(c3nc(OC[C@@]45CCCN4C[C@H](F)C5)nc4c3COC3(CCCc5c(Cl)cc(O)cc53)C4)C2)N1` (single isomer, unassigned) [Compound 51A, (5R)-9-[(7*)-5′-chloro-2-[[(2R,8S)-2-fluoro-1,2,3,5,6,7-hexahydropyrrolizin-8-yl]methoxy]-7′-hydroxy-spiro[5,8-dihydropyrano[4,3-d]pyrimidine-7,1′-tetralin]-4-yl]-1,3,9-triazaspiro[4.5]decane-2,4-dione], 1000 to 20000 nM.
The result for `OC1CCCN(c2nc(OC[C@@]34CCCN3C[C@H](F)C4)nc3c2COC2(CCCc4ccc(F)cc42)C3)CC1` (stereo partly drawn) [Compound 11, 1-[7′-fluoro-2-[[(2R,8S)-2-fluoro-1,2,3,5,6,7-hexahydropyrrolizin-8-yl]methoxy]spiro[5,8-dihydropyrano[4,3-d]pyrimidine-7,1′-tetralin]-4-yl]azepan-4-ol] reads 1000 to 20000 nM.
`F[C@H]1CN2CCC[C@@]2(COc2nc3c(c(N4CCCCCC4)n2)COC2(CCCc4ccccc42)C3)C1` (stereo partly drawn) [Compound 12, 4-(azepan-1-yl)-2-[[(2R,8S)-2-fluoro-1,2,3,5,6,7-hexahydropyrrolizin-8-yl]methoxy]spiro[5,8-dihydropyrano[4,3-d]pyrimidine-7,1′-tetralin]]: the IC50 is 1000 to 20000 nM.
The result for `O[C@@H]1CCN(c2nc(OC[C@@]34CCCN3C[C@H](F)C4)nc3c2COC2(CCc4c(Cl)cccc42)C3)CC[C@@H]1O` (stereo partly drawn) [Compound 22, syn-1-[4′-chloro-2-[[(2R,8S)-2-fluoro-1,2,3,5,6,7-hexahydropyrrolizin-8-yl]methoxy]spiro[5,8-dihydropyrano[4,3-d]pyrimidine-7,1′-indane]-4-yl]azepane-4,5-diol] reads 1000 to 20000 nM; that for `N#CN[C@@H]1CCCCN(c2nc(OC[C@@]34CCCN3C[C@H](F)C4)nc3c2CO[C@@]2(CCc4c(Cl)cccc42)C3)C1` [Compound 44, [(3R)-1-[(7S)-4′-chloro-2-[[(2R)-2-fluoro-1,2,3,5,6,7-hexahydropyrrolizin-8-yl]methoxy]spiro[5,8-dihydropyrano[4,3-d]pyrimidine-7,1′-indane]-4-yl]azepan-3-yl]cyanamide], 1000 to 20000 nM.
The result for `C[C@@]1(NC#N)CCCN(c2nc(OC[C@@]34CCCN3C[C@H](F)C4)nc3c2COC2(CCc4c(Cl)cccc42)C3)C1` (stereo partly drawn) [Compound 46B, [(3R)-1-[(7*)-4′-chloro-2-[[(2R,8S)-2-fluoro-1,2,3,5,6,7-hexahydropyrrolizin-8-yl]methoxy]spiro[5,8-dihydropyrano[4,3-d]pyrimidine-7,1′-indane]-4-yl]-3-methyl-3-piperidyl]cyanamide; 2,2,2-trifluoroacetic acid] reads 1000 to 20000 nM; that for `O=C(c1nn2c(c1Cl)CN(c1nc(OC[C@@]34CCCN3C[C@H](F)C4)nc3c1CO[C@@]1(CCc4c(Cl)cccc41)C3)CCC2)N1CCS(=O)(=O)CC1` [Compound 56, [3-chloro-5-[(7R)-4′-chloro-2-[[(2R,8S)-2-fluoro-1,2,3,5,6,7-hexahydropyrrolizin-8-yl]methoxy]spiro[5,8-dihydropyrano[4,3-d]pyrimidine-7,1′-indane]-4-yl]-4,6,7,8-tetrahydropyrazolo[1,5-a][1,4]diazepin-2-yl]-(1,1-dioxo-1,4-thiazinan-4-yl)methanone], 10 to 100 nM.
On to `CN1Cc2c(nc(OC[C@@]34CCCN3C[C@H](F)C4)nc2N2CCC[C@]3(C2)NC(=O)NC3=O)C[C@]12CCc1c(Cl)cccc12` [Compound 58, (5R)-9-[(7S)-4′-chloro-2-[[(2R,8S)-2-fluoro-1,2,3,5,6,7-hexahydropyrrolizin-8-yl]methoxy]-6-methyl-spiro[5,8-dihydropyrido[4,3-d]pyrimidine-7,1′-indane]-4-yl]-1,3,9-triazaspiro[4.5]decane-2,4-dione], for which the IC50 fell in the range of 10 to 100 nM.
The result for `CN(C)C(=O)c1nn2c(c1Cl)CN(c1nc(OC[C@@]34CCCN3C[C@H](F)C4)nc3c1COC1(CCc4ccc(C(F)F)cc41)C3)CCC2` (stereo partly drawn) [Compound 75, 3-chloro-5-[6′-(difluoromethyl)-2-[[(2R,8S)-2-fluoro-1,2,3,5,6,7-hexahydropyrrolizin-8-yl]methoxy]spiro[5,8-dihydropyrano[4,3-d]pyrimidine-7,1′-indane]-4-yl]-N,N-dimethyl-4,6,7,8-tetrahydropyrazolo[1,5-a][1,4]diazepine-2-carboxamide] reads 100 to 1000 nM; that for `CN(C)C(=O)c1nn2c(c1Cl)CN(c1nc(OC[C@@]34CCCN3C[C@H](F)C4)nc3c1CN(CC#N)[C@@]1(CCc4cccc(F)c41)C3)CCC2` [Compound 101, 3-chloro-5-[(7S)-6-(cyanomethyl)-7′-fluoro-2-[[(2R,8S)-2-fluoro-1,2,3,5,6,7-hexahydropyrrolizin-8-yl]methoxy]spiro[5,8-dihydropyrido[4,3-d]pyrimidine-7,1′-indane]-4-yl]-N,N-dimethyl-4,6,7,8-tetrahydropyrazolo[1,5-a][1,4]diazepine-2-carboxamide], 100 to 1000 nM.
As to `CN(C)C(=O)c1nn2c(c1Cl)CN(c1nc(OC[C@@]34CCCN3C[C@H](F)C4)nc3c1CN(CC#N)[C@@]1(CCCc4ccccc41)C3)CCC2` [Compound 102, 3-chloro-5-[(7S)-6-(cyanomethyl)-2-[[(2R,8S)-2-fluoro-1,2,3,5,6,7-hexahydropyrrolizin-8-yl]methoxy]spiro[5,8-dihydropyrido[4,3-d]pyrimidine-7,1′-tetralin]-4-yl]-N,N-dimethyl-4,6,7,8-tetrahydropyrazolo[1,5-a][1,4]diazepine-2-carboxamide], the IC50 was 10 to 100 nM.
The result for `CCN1Cc2c(nc(OC[C@@]34CCCN3C[C@H](F)C4)nc2N2CCCn3nc(C(=O)N(C)C)c(Cl)c3C2)C[C@]12CCc1cccc(F)c12` [Compound 103, 3-chloro-5-[(7S)-6-ethyl-7′-fluoro-2-[[(2R,8S)-2-fluoro-1,2,3,5,6,7-hexahydropyrrolizin-8-yl]methoxy]spiro[5,8-dihydropyrido[4,3-d]pyrimidine-7,1′-indane]-4-yl]-N,N-dimethyl-4,6,7,8-tetrahydropyrazolo[1,5-a][1,4]diazepine-2-carboxamide] reads 10 to 100 nM.

The record behind these values is US11912723B2, “KRAS modulators and uses thereof” (Quanta Therapeutics, Inc., priority 2022, dated 2024).
